Measured values from ChEMBL document CHEMBL4825709 (J Med Chem, 2021).
Values after ≈ are worked out from the molar mass of the structure shown.

Key:
[1] = physchem; details: buffer, pH 7.4, logD
[2] = physchem
[3] = physchem; details: FaSSIF, pH 6.5
[4] = Solubility of compound in pH 7.4 by charged aerosol detection method; format: physicochemical; details: buffer
[5] = buffer, pH 7.4
[6] = AUC (0 to infinity) in Wistar Han rat at 1 mg/kg, iv measured up to 24 hrs by LC-MS/MS analysis; format: ADME, organism-based; design: route intravenous, dose 1 mg/kg, time <=24; details: in vivo
[7] = Half life in Wistar Han rat at 1 mg/kg, iv measured up to 24 hrs by LC-MS/MS analysis; format: ADME, organism-based; details: in vivo
[8] = Clearance in Wistar Han rat at 1 mg/kg, iv measured up to 24 hrs by LC-MS/MS analysis; format: ADME, organism-based; details: in vivo
[9] = Intrinsic clearance in rat hepatocytes at 0.5 uM measured after 60 mins by LC-MS/MS analysis; format: ADME, cell-based, Hepatocyte; details: 1 h
[10] = Intrinsic clearance in human hepatocytes at 0.5 uM measured after 120 mins by LC-MS/MS analysis; format: ADME, cell-based, Hepatocyte; details: 2 h
[11] = Intrinsic clearance in dog hepatocytes at 0.5 uM measured after 120 mins by LC-MS/MS analysis; format: ADME, cell-based, Canis lupus familiaris, Hepatocyte; details: 2 h
[12] = Volume of distribution at steady state in Wistar Han rat at 1 mg/kg, iv measured up to 24 hrs by LC-MS/MS analysis; format: ADME, organism-based; details: in vivo, read-out: Vdss
[13] = Cmax in Wistar Han rat at 3 mg/kg, po measured up to 24 hrs by LC-MS/MS analysis; format: ADME, organism-based; design: route oral, dose 3 mg/kg, time <=24; details: in vivo
[14] = Tmax in Wistar Han rat at 3 mg/kg, po measured up to 24 hrs by LC-MS/MS analysis; format: ADME, organism-based; details: in vivo
[15] = AUC (0 to infinity) in Wistar Han rat at 3 mg/kg, po measured up to 24 hrs by LC-MS/MS analysis; format: ADME, organism-based; design: route oral, dose 3 mg/kg, time <=24; details: in vivo
[16] = Oral bioavailability in Wistar Han rat at 3 mg/kg measured up to 24 hrs by LC-MS/MS analysis; format: ADME, organism-based; details: in vivo

Row | SMILES | logD [1] | solubility [2] [µg/mL] | other results
1 | CNC(=O)C(C)N(CC(c1ccccc1)c1ccncc1)C(=O)c1cc(C)c(=O)n(C)c1 (configuration not stated) | 1.7 |  | 
2 | Cc1cc(C(=O)N(CC(c2ccccc2)c2ccccc2)C(C)C#N)cn(C)c1=O (configuration not stated) | 4.8 | > 157 | solubility at 16 h [3]: 13 µg/mL (≈ 32.5 µM)
3 | CNC(=O)C(C(C)C)N(CC(c1ccccc1)c1ccccc1)C(=O)c1cc(C)c(=O)n(C)c1 (configuration not stated) | 4.9 | 105 (≈ 228 µM) | solubility at 16 h [3]: 60 µg/mL (≈ 131 µM)
4 | CCC(CN(CC(=O)NC)C(=O)c1cc(C)c(=O)n(C)c1)c1ccccc1 (configuration not stated) | 2.8 |  | 
5 | CNC(=O)C1(N(CC(c2ccccc2)c2ccccc2)C(=O)c2cc(C)c(=O)n(C)c2)CCCC1 | 4.7 |  | solubility at 16 h [3]: 132 µg/mL (≈ 280 µM)
6 | CNC(=O)[C@H](C1CCOCC1)N(CC(c1ccccc1)c1ccccn1)C(=O)c1cc(C)c(=O)n(C)c1 (stereo in doubt; 62) | 2.8 |  | 
7 | Cc1cc(C(=O)N(CC(c2ccccc2)c2ccccc2)C(C)C2CCCO2)cn(C)c1=O (configuration not stated) | 5.1 | 108 (≈ 243 µM) | solubility at 16 h [3]: 21 µg/mL (≈ 47.2 µM)
8 | CNC(=O)CN(CC(CC1CCOCC1)c1ccccc1)C(=O)c1cc(C)c(=O)n(C)c1 (configuration not stated) | 2.4 |  | 
9 | CNC(=O)CN(CC(c1ccccc1)C1CCOCC1)C(=O)c1cc(C)c(=O)n(C)c1 (configuration not stated) | 2.1 |  | 
10 | Cc1cc(C(=O)N(CCN2CCOCC2)CC(c2ccccc2)c2ccccc2)cn(C)c1=O | 4.1 | > 239 | 
11 | CNC(=O)C(C1CCOC1)N(CC(c1ccccc1)c1ccccc1)C(=O)c1cc(C)c(=O)n(C)c1 (racemic) | 4 |  | solubility ([4]; read-out: solubility): > 138 µg/mL
12 | Cc1cc(C(=O)N(CC(N)=O)CC(c2ccccc2)c2ccccc2)cn(C)c1=O | 2.9 | > 175 | 
13 | CNC(=O)[C@@H](C1CCOCC1)N(CC(c1ccccc1)c1ccccn1)C(=O)c1cc(C)c(=O)n(C)c1 (stereo in doubt; 61) | 2.8 |  | 
14 | CNC(=O)C(C1CCC1)N(CC(c1ccccc1)c1ccccc1)C(=O)c1cc(C)c(=O)n(C)c1 (configuration not stated) | 4.9 | 161 (≈ 341 µM) | 
15 | CNC(=O)C(C1CCOC1)N(CC(c1ccccc1)c1ccccc1)C(=O)c1cc(C)c(=O)n(C)c1 (stereo in doubt; 23) |  |  | solubility [4]: > 181 µg/mL
16 | COCC(COC)N(CC(c1ccccc1)c1ccccc1)C(=O)c1cc(C)c(=O)n(C)c1 | 5.5 | > 186 | solubility at 16 h [3]: 78 µg/mL (≈ 174 µM)
17 | CNC(=O)C(C1CCOC1)N(CC(c1ccccc1)c1ccccc1)C(=O)c1cc(C)c(=O)n(C)c1 (stereo in doubt; 22) |  |  | solubility [4]: > 185 µg/mL
18 | CNC(=O)CN(CC(c1ccccc1)c1ccccc1)C(=O)c1cc(C)c(OC)c(C)c1 | 5.7 | 114 (≈ 265 µM) | 
19 | CNC(=O)C(C1CC1)N(CC(c1ccccc1)c1ccccc1)C(=O)c1cc(C)c(=O)n(C)c1 (configuration not stated) | 4.4 | 91 (≈ 199 µM) | solubility at 16 h [3]: 30 µg/mL (≈ 65.6 µM)
20 | CNC(=O)[C@@H](C)N(CC(c1ccccc1)c1ccccc1)C(=O)c1cc(C)c(=O)n(C)c1 |  | > 211 | 
21 | CCNC(=O)C(C)N(CC(c1ccccc1)c1ccccc1)C(=O)C1CCC(=O)N(C)C1 (configuration not stated) | 3.9 |  | 
22 | CNC(=O)C(C)N(CC(c1ccccc1)c1ccccn1)C(=O)c1cc(C)c(=O)n(C)c1 (stereo in doubt; 57) |  |  | logD [5]: 2.6
23 | CNC(=O)C(N(CC(c1ccccc1)c1ccccc1)C(=O)c1cc(C)c(=O)n(C)c1)C(C)(C)C (configuration not stated) | 5.4 | 93 (≈ 196 µM) | solubility at 16 h [3]: 2 µg/mL (≈ 4.22 µM)
24 | CNC(=O)CN(CC(c1ccccc1)n1ccnc1)C(=O)c1cc(C)c(=O)n(C)c1 (configuration not stated) | 1.45 |  | 
25 | CNC(=O)C1(N(CC(c2ccccc2)c2ccccc2)C(=O)c2cc(C)c(=O)n(C)c2)CC1 | 4.4 | > 194 | solubility at 16 h [3]: 819 µg/mL (≈ 1850 µM)

Row | SMILES | logD [1] | solubility [2] [µg/mL] | other results
26 | CCOC(CN(CC(=O)NC)C(=O)c1cc(C)c(=O)n(C)c1)c1ccccc1 (configuration not stated) | 2.7 |  | 
27 | CNC(=O)[C@H](C)N(CC(c1ccccc1)c1ccccc1)C(=O)c1cc(C)c(=O)n(C)c1 |  | > 163 | 
28 | CNC(=O)C1(N(CC(c2ccccc2)c2ccccc2)C(=O)c2cc(C)c(=O)n(C)c2)CCC1 | 4.9 | > 150 | 
29 | CNC(=O)C(C)N(CC(c1ccccc1)c1ccccn1)C(=O)c1cc(C)c(=O)n(C)c1 (stereo in doubt; 51) |  |  | logD [5]: 2.1
30 | CCNC(=O)C(C)N(CC(c1ccccc1)c1ccccc1)C(=O)c1c[nH]c(=O)c(C)c1 (configuration not stated) | 3.6 | > 170 | 
31 | Cc1cc(C(=O)N(CC(c2ccccc2)c2ccccc2)C(C)CN2CCOCC2)cn(C)c1=O (configuration not stated) | 5.4 | > 206 | solubility at 16 h [3]: 91 µg/mL (≈ 192 µM)
32 | CNC(=O)[C@@H](C1CCOCC1)N(CC(c1ccccc1)c1ccccn1)C(=O)c1cc(C)c(=O)n(C)c1 (stereo in doubt; 63) |  |  | logD [5]: 2.9
33 | CNC(=O)C(C)N(CC(c1ccccc1)c1ccccn1)C(=O)c1cc(C)c(=O)n(C)c1 (stereo in doubt; 56) |  |  | logD [5]: 2.7
34 | CCC(C(=O)NC)N(CC(c1ccccc1)c1ccccc1)C(=O)c1cc(C)c(=O)n(C)c1 (configuration not stated) | 4.3 |  | solubility at 16 h [3]: 150 µg/mL (≈ 337 µM)
35 | CNC(=O)CN(CC(c1ccccc1)C(C)C)C(=O)c1cc(C)c(=O)n(C)c1 (configuration not stated) | 3.3 |  | 
36 | CNC(=O)[C@H](C1CCOCC1)N(CC(c1ccccc1)c1ccccn1)C(=O)c1cc(C)c(=O)n(C)c1 (stereo in doubt) |  |  | AUC(0-inf) [6]: 340 ng·h/mL; half-life [7]: 11.4 min; clearance [8]: 50 mL/min/kg; solubility ([4]; read-out: solubility): > 231 µg/mL; CLH [9]: 3.13 mL/min/g; CLH [10]: < 0.45 mL/min/g; CLH [11]: < 0.65 mL/min/g; Vd [12]: 0.6 L/kg; Cmax [13]: 398 nM; Tmax [14]: 15 min; AUC(0-inf) [15]: 162 ng·h/mL; bioavailability [16]: 16%; logD [5]: 2.9; solubility at 16 h [3]: > 1000 µg/mL
37 | CNC(=O)C(C)N(CC(O)(c1ccccc1)c1ccccc1)C(=O)c1cc(C)c(=O)n(C)c1 (configuration not stated) | 2.9 |  | 
38 | CNC(=O)C(C)N(CC(c1ccccc1)c1cccnc1)C(=O)c1cc(C)c(=O)n(C)c1 (configuration not stated) | 1.9 |  | 
39 | CCNC(=O)C(C)N(CC(c1ccccc1)c1ccccc1)C(=O)c1cc(C)c(=O)n(C)c1 (configuration not stated) | 4.3 |  | 
40 | CCNC(=O)C(C)N(CC(c1ccccc1)c1ccccc1)C(=O)c1ccc(=O)n(C)c1 (configuration not stated) | 3.7 | > 169 | 
41 | CNC(=O)CN(CC(c1ccccc1)c1ccccc1)C(=O)c1cc(C)c(=O)n(C)c1 | 3.4 | 163 (≈ 390 µM) | 
42 | CNC(=O)C(C)N(CC(c1ccccc1)c1ccccn1)C(=O)c1cc(C)c(=O)n(C)c1 (stereo in doubt; 50) | 2.3 |  | 
43 | CNC(=O)C(C1CCOC1)N(CC(c1ccccc1)c1ccccc1)C(=O)c1cc(C)c(=O)n(C)c1 (stereo in doubt; 24) |  |  | solubility [4]: > 153 µg/mL
44 | CNC(=O)CN(CC(C)c1ccccc1)C(=O)c1cc(C)c(=O)n(C)c1 (configuration not stated) | 2.2 |  | 
45 | CNC(=O)C(C1CCOC1)N(CC(c1ccccc1)c1ccccc1)C(=O)c1cc(C)c(=O)n(C)c1 (stereo in doubt; 21) |  |  | solubility [4]: > 143 µg/mL; solubility at 16 h [3]: 987 µg/mL (≈ 2020 µM)
46 | CNC(=O)C(C)(C)N(CC(c1ccccc1)c1ccccc1)C(=O)c1cc(C)c(=O)n(C)c1 | 3.7 | > 242 | 
47 | CNC(=O)C(C1COC1)N(CC(c1ccccc1)c1ccccc1)C(=O)c1cc(C)c(=O)n(C)c1 (configuration not stated) | 3.6 | > 142 | 
48 | CNC(=O)C(C)N(CC(c1ccccc1)c1ccccc1)C(=O)c1cc(OC)c(=O)n(C)c1 (configuration not stated) | 3.3 | 111 (≈ 248 µM) | solubility at 16 h [3]: 661 µg/mL (≈ 1480 µM)
49 | CNC(=O)C(C)N(CC(c1ccccc1)c1ccccc1)C(=O)c1cn(C)c(=O)c(C)n1 (configuration not stated) | 4.1 |  | solubility ([4]; read-out: solubility): > 102 µg/mL
50 | CNC(=O)C(C)N(CC(c1ccccc1)c1ccccc1)C(=O)c1cc(C)c(=O)n(C)c1 (configuration not stated) | 3.7 | 213 (≈ 494 µM) | 
